pIC50: −log10 of the molar value.
Tests used:
[1] = molecular target: T1, PAR2 (HT-29 cells, SLIGKV activation) (Homo sapiens, UniProt P55085); assay: Ca FLIPR TETRA assay, ANTAGONIST mode, stimulation with 8 μM SLIGKV; assay type: cell-based; conditions: HT-29 cells
T1 construct: host or cells: HT-29 cells
T1 sequence (P55085 26-397): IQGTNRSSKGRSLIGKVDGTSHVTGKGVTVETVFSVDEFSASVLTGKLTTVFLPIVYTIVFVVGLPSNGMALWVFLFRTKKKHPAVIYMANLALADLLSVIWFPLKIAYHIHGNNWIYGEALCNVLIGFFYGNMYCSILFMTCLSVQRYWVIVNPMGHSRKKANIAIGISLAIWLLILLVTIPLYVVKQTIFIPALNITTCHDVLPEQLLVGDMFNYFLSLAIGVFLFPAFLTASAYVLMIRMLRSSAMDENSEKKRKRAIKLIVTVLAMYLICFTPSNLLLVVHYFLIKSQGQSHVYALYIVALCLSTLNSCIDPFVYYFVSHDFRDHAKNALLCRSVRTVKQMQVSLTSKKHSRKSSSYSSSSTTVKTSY
Outline: (§1)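 Intracellular calcium is measured by fluorescence in HT-29 cells loaded with calcium 5 reagent. Compounds sit on the cells 30 min at room temperature before challenge with trypsin (3.1 U/mL) or SLIGKV (8 μM) for PAR2, or with thrombin (1 U/mL) or UTP (0.6 μM) as counter-stimuli.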

[2] = molecular target: T2, PAR2 (HT-29 cells, trypsin activation) (Homo sapiens, UniProt P55085); assay: Ca FLIPR TETRA assay, ANTAGONIST mode, stimulation with 3.1 U/mL trypsin; assay type: cell-based; conditions: HT-29 cells
T2 construct: host or cells: HT-29 cells
T2 sequence (P55085 26-397): T1 sequence (P55085 26-397)
Outline: as §1

[3] = test system: Thrombin-stimulated Ca2+ response in HT-29 cells; assay: Ca FLIPR TETRA assay, ANTAGONIST mode, stimulation with 1 U/mL Thrombin; assay type: cell-based, human; conditions: Homo sapiens, HT-29 cells
Outline: as §1

[4] = test system: UTP-stimulated Ca2+ response in HT-29 cells; assay: Ca FLIPR TETRA assay, ANTAGONIST mode, stimulation with 0.6 μM UTP; assay type: cell-based, human; conditions: Homo sapiens, HT-29 cells
Outline: as §1

[5] = stimulation with 3.1 U/mL trypsin
[6] = stimulation with 1 U/mL Thrombin
[7] = antagonist mode, stimulation with 8 μM SLIGKV
[8] = antagonist mode, stimulation with 3.1 U/mL trypsin
[9] = antagonist mode, stimulation with 1 U/mL Thrombin
[10] = antagonist mode, stimulation with 0.6 μM UTP

pIC50 ([1]; stimulation with 8 μM SLIGKV) | pIC50 [2, 5] | pIC50 [3, 6] | pIC50 ([4]; stimulation with 0.6 μM UTP) | pIC50 [1, 7] | pIC50 [2, 8] | pIC50 [3, 9] | pIC50 [4, 10] | Compound | other results
5.43 | 5.24 | 4.92 | 4.77 |  |  |  |  | O=C(c1cn2nc(-c3ccc(F)cc3)cc(C(F)(F)F)c2n1)N1CC[C@@]2(O)CCCC[C@H]2C1 [Compound I-70] | 
 |  |  |  | 8.77 | 8.68 | 5.38 | 5.66 | CC(C)(C)c1cc(-c2ccc(F)c(Cl)c2)nn2cc(C(=O)N3CCN(C(=O)C4CC(C(=O)O)C4)CC3(C)C)nc12 (stereo not drawn) [Compound I-486] | 
 |  |  |  | 8.74 | 8.80 | < 6.00 | < 6.00 | COC(=O)[C@H]1CC[C@H](C(=O)N2CCN(C(=O)c3cn4nc(-c5ccc(Cl)cc5)cc(C(C)C)c4n3)C(C)(C)C2)CC1 [Compound I-546] | 
6.70 | 5.52 | 4.37 | 4.32 |  |  |  |  | C[C@H]1CN(C(=O)c2cn3nc(-c4ccc(F)cc4)cc(C(F)(F)F)c3n2)CCN1C(=O)C(O)c1cccnc1 (stereo partly drawn) [Compound I-100] | 
 |  |  |  | 6.90 | 6.74 | 5.84 | 5.71 | CC(C)(O)c1cc(-c2ccc(F)cc2)nn2cc(C(=O)N3CCNC(=O)C3(C)C)nc12 [Compound I-184, 4-[6-(4-fluorophenyl)-8-(1-hydroxy-1-methyl-ethyl)imidazo[1,2-b]pyridazine-2-carbonyl]-3,3-dimethyl-piperazin-2-one] | 
 |  |  |  | 9.52 | 9.40 | < 6.00 | < 6.00 | CC(C)c1cc(-c2ccc(F)c(Cl)c2)nn2cc(C(=O)N3CCN(C(=O)[C@H]4C[C@](O)(C(F)(F)F)C4)CC3(C)C)nc12 [Compound I-500] | 
6.02 | 5.51 | < 4.30 | < 4.30 |  |  |  |  | CC(C(=O)NC1CC1)N1CCN(C(=O)c2cn3nc(-c4ccc(F)cc4)cc(C(F)(F)F)c3n2)CC1 (stereo not drawn) [Compound I-55] | 
8.52 | 8.10 | 4.77 | 4.64 |  |  |  |  | Cc1cc(-c2ccc(F)cc2)nn2cc(C(=O)N3CCN(C(=O)[C@H](O)CC(C)(C)C)CC3(C)C)nc12 [Compound I-102] | 
 |  |  |  | 9.00 | 8.85 | < 6.00 | < 6.00 | CC(C)(C)c1cc(-c2ccc(F)cc2)nn2cc(C(=O)N3CCN(C(=O)c4ccccn4)CC3(C)C)nc12 [Compound I-284] | 
 |  |  |  | 8.17 | 8.39 | < 6.00 | < 6.00 | Cc1nc[nH]c1C(=O)N1CCN(C(=O)c2cn3nc(-c4ccc(F)cc4)cc(C(C)(C)C)c3n2)C(C)(C)C1 [Compound I-311] | 
 |  |  |  | 9.40 | 9.40 | < 6.00 | < 6.00 | Cc1n[nH]c(C(=O)N2CCN(C(=O)c3cn4nc(-c5ccc(Br)cc5)cc(C(C)(C)C)c4n3)C(C)(C)C2)n1 [Compound I-519] | 
 |  |  |  | 7.56 | 7.24 | < 6.00 | < 6.00 | CC(C)c1cc(-c2ccc(Cl)cc2)nn2cc(C(=O)N3CCN(C(=O)[C@H]4CC[C@H](C(=O)O)CC4)CC3(C)C)nc12 [Compound I-549] | 
8.15 | 7.64 | 5.00 | 5.00 |  |  |  |  | CC(C)CC(=O)N1CCN(C(=O)c2cn3nc(-c4ccc(F)cc4)cc(C(C)C)c3n2)C[C@@H]1C [Compound I-122] | 
 |  |  |  | 7.89 | 7.51 | < 6.00 | < 6.00 | CC(C)(F)c1cc(-c2ccc(F)cc2)nn2cc(C(=O)N3CCNC(=O)C3(C)C)nc12 [Compound I-362] | 
6.02 | 6.17 | 4.37 | < 4.30 |  |  |  |  | O=C(c1cn2nc(-c3ccc(F)cc3)cc(C(F)(F)F)c2n1)N1CCCCC1c1ccccc1 (stereo not drawn) [Compound I-71] | 
 |  |  |  | 8.77 | 8.72 | < 6.00 | < 6.00 | CC(C)c1cc(-c2ccc(F)c(F)c2)nn2cc(C(=O)N3CCN(C(=O)c4ccn[nH]4)CC3(C)C)nc12 [Compound I-258] | 
 |  |  |  | 8.51 | 8.28 | < 6.00 | < 6.00 | CC(C)c1cc(-c2ccc(F)c(F)c2)nn2cc(C(=O)N3CCN(C(=O)[C@H]4C[C@@](O)(C(F)(F)F)C4)CC3(C)C)nc12 [Compound I-264] | 

pIC50 ([1]; stimulation with 8 μM SLIGKV) | pIC50 [2, 5] | pIC50 [3, 6] | pIC50 ([4]; stimulation with 0.6 μM UTP) | pIC50 [1, 7] | pIC50 [2, 8] | pIC50 [3, 9] | pIC50 [4, 10] | Compound | other results
9.40 | 9.05 | < 5.30 | < 5.30 |  |  |  |  | CC(C)c1cc(-c2ccc(F)cc2)nn2cc(C(=O)N3CCN(C(=O)[C@H](O)CC(C)(C)C)CC3(C)C)nc12 [Compound I-103] | 
 |  |  |  | 8.47 | 8.51 | 6.28 | 6.14 | Cc1cn[nH]c1C(=O)N1CCN(C(=O)c2cn3nc(-c4ccc(F)cc4)cc(C(C)(C)C)c3n2)C(C)(C)C1 [Compound I-290] | 
 |  |  |  |  |  |  |  | CC(C)(CC(=O)N1CCN(C(=O)c2cn3nc(-c4ccc(F)cc4)cc(C(C)(C)C)c3n2)C(C)(C)C1)C(=O)O [Compound I-561, 4-(4-(8-(tert-butyl)-6-(4-fluorophenyl)imidazo[1,2-b]pyridazine-2-carbonyl)-3,3-dimethylpiperazin-1-yl)-2,2-dimethyl-4-oxobutanoic acid] | pIC50 ([1]; antagonist mode, 8 μM SLIGKV): 9.30; pIC50 ([2]; antagonist mode, 3.1 U/mL trypsin): 9.15; pIC50 ([3]; antagonist mode, 1 U/mL Thrombin): < 6.00; pIC50 ([4]; antagonist mode, 0.6 μM UTP): < 6.00
8.00 | 7.77 | 4.60 | 4.59 |  |  |  |  | CCc1cc(-c2ccc(F)cc2)nn2cc(C(=O)N3CCN(C(=O)[C@H](O)CC(C)C)[C@@H](C)C3)nc12 [Compound I-169] | 
 |  |  |  | 8.68 | 8.82 | < 6.00 | < 6.00 | CC(C)(C)c1cc(-c2ccc(C(F)(F)F)cc2)nn2cc(C(=O)N3CCN(C(=O)c4ccn[nH]4)CC3(C)C)nc12 [Compound I-401] | 
8.22 | 7.21 | 5.10 | 5.18 |  |  |  |  | CCCCC(=O)N1CCN(C(=O)c2cn3nc(-c4ccc(F)cc4)cc(C(C)C)c3n2)C[C@@H]1C [Compound I-147] | 
4.89 | 4.72 | 4.59 | 4.42 |  |  |  |  | Cc1cc(-c2ccc(F)cc2)nn2cc(C(=O)N3CCCC4(COC4)C3)nc12 [Compound I-61] | 
5.62 | 6.00 | 4.42 | 4.46 |  |  |  |  | CC(C)c1cc(-c2ccc(F)cc2)nn2cc(C(=O)N3CCN(C(=O)C(C)(C)O)[C@@H](C)C3)nc12 [Compound I-112] | 
5.13 | 4.54 | 4.42 | 4.36 |  |  |  |  | CCOC1CCN(C(=O)c2cn3nc(-c4ccc(F)cc4)cc(C)c3n2)CC1 [Compound I-62] | 
9.00 | 8.22 | 4.44 | < 6.30 |  |  |  |  | COc1ccc(CC(=O)N2CCN(C(=O)c3cn4nc(-c5ccc(F)cc5)cc(C(C)C)c4n3)C[C@@H]2C)cc1 [Compound I-133] | 
 |  |  |  | 7.91 | 7.86 | < 6.00 | < 6.00 | CC(C)(C)c1cc(-c2ccc(F)cc2)nn2cc(C(=O)N3CCN(C(=O)[C@H]4CC[C@H](C(=O)O)CC4)CC3(C)C)nc12 [Compound I-494, (1R,4R)-4-(4-(8-(tert-butyl)-6-(4-fluorophenyl)imidazo[1,2-b]pyridazine-2-carbonyl)-3,3-dimethylpiperazine-1-carbonyl)cyclohexane-1-carboxylic acid] | 
 |  |  |  | 9.00 | 8.82 | < 6.00 | < 6.00 | CC(C)(C)c1cc(-c2ccc(F)c(Cl)c2)nn2cc(C(=O)N3CCN(C(=O)c4ccn[nH]4)CC3(C)C)nc12 [Compound I-459] | 
6.07 | 5.62 | 5.21 | 5.33 |  |  |  |  | Cc1cc(-c2ccc(F)cc2)nn2cc(C(=O)N3CCN(C(=O)OC(C)(C)C)[C@@H](C)C3)nc12 [Compound I-2, tert-Butyl (2S)-4-[6-(4-fluorophenyl)-8-methyl-imidazo[1,2-b]pyridazine-2-carbonyl]-2-methyl-piperazine-1-carboxylate] | 
7.32 | 7.09 | 4.46 | 4.40 |  |  |  |  | CC(C)c1cc(-c2ccc(F)cc2)nn2cc(C(=O)N3CCN(C(=O)[C@H]4CCC(=O)N4)CC3(C)C)nc12 [Compound I-177] | 
 |  |  |  | 8.85 | 8.77 | < 6.00 | < 6.00 | CC1(C)CN(C(=O)[C@H]2CC[C@@H](C(=O)O)CC2)CCN1C(=O)c1cn2nc(-c3ccc(F)cc3)cc(-c3ccc(F)cc3)c2n1 [Compound I-524] | 
 |  |  |  | 8.08 | 8.02 | < 6.00 | < 6.00 | COC1CC(C(=O)N2CCN(C(=O)c3cn4nc(-c5ccc(F)c(Cl)c5)cc(C(C)C)c4n3)C(C)(C)C2)C1 (stereo not drawn) [Compound I-499] | 

Source: patent publication US20190119282A1, “IMIDAZOPYRIDAZINES USEFUL AS INHIBITORS OF THE PAR-2 SIGNALING PATHWAY” (Vertex Pharmaceuticals Incorporated, priority 2013, published 2019)
